The record followed here is the OligoGym collection.

After the bases stand the sugars from the 5' end (letter, count) and the backbone: PS all phosphorothioate, else s phosphorothioate and o phosphodiester by linkage. Methylation of C is not given here. l = locked nucleic acid (LNA); d = 2'-deoxy (DNA)

The series has as its target SNHG14. Particulars: ASO.
Where [1] appears, read: Mouse Primary Neuronal Cell, 0.005 µM.

As for “TTCTGTATACACCATCC (sugars l1 d10 l1 d3 l2, PS)”, the target mRNA inhibition (Human Neuronal Cell, 7.5 µM) amounted to 51%.
For the sequence “TTTCCATTTATTTCCATTTA (sugars lddddldddddddlddldll, PS)”, the target mRNA inhibition (Human Neuronal Cell, 7.5 µM) was found to be 58%.
The same measure, in the same setting: then “GTTTATACCCTTTCCAAT (sugars l2 d11 l1 d2 l2, PS)”, with 67%.
On the same count and under the same terms, the value for “CTTTCCATTTATTTCCATTT (sugars ldddddddddddddldldll, PS)” was 47%.
Regarding GTTACCTACATCTCAT (sugars l2 d12 l2, PS), the target mRNA inhibition (Human Neuronal Cell, 0.2 µM) is -6%; the target mRNA inhibition (Human Neuronal Cell, 1 µM) turned out to be 20%; the target mRNA inhibition (Human Neuronal Cell, 5 µM) was 31%; the target mRNA inhibition under setting [1] came to 84.2%.
As for “TCAGCTTTTAACCAGAGT (sugars l2 d13 l3, PS)”, for the setting “Human Neuronal Cell, 7.5 µM”, the target mRNA inhibition is 79%.
On to “TTTATCAATATCTTCTCA (sugars l1 d2 l1 d10 l4, PS)”, for which the target mRNA inhibition (Human Neuronal Cell, 7.5 µM) was determined as 53%.
Turning to ACCTACATCTCATACT (sugars l4 d10 l2, PS), the target mRNA inhibition reads like this: (Human Neuronal Cell, 0.2 µM) 14%; (Human Neuronal Cell, 1 µM) -14%; (Human Neuronal Cell, 5 µM) 33%; under setting [1], 93.8%.
For the sequence “TATACCTTTCTTTAACCCTT (sugars llddldldddddddddddll, PS)”, the target mRNA inhibition (Human Neuronal Cell, 7.5 µM) turned out to be 60%.
On to TGACATAACCATATAC (sugars l3 d10 l3, PS), for which the target mRNA inhibition turned out to be 20% (Human Neuronal Cell, 0.2 µM) and 30% (Human Neuronal Cell, 1 µM).
Take CCCAAATAAGCAAACT (sugars l4 d10 l2, PS): the target mRNA inhibition by setting is: (Human Neuronal Cell, 0.2 µM) 35%; (Human Neuronal Cell, 1 µM) 43%.
On the same counts, the results for “TATTTATACACCATCAT (sugars l3 d11 l3, PS)” are 59% and 63%.
On the same counts, the results for “CCCATTTCTAACATTTAC (sugars l3 d12 l3, PS)” are 50% and 64%.
The corresponding values for TTCTACTATACTTTCC (sugars l4 d10 l2, PS) are 55% and 69%.
In the case of “CAACATTATTAACCACCTTA (sugars ldldldddddddddddldll, PS)”, the target mRNA inhibition (Human Neuronal Cell, 7.5 µM) worked out at 51%.
Still for that read-out and setting: then “ACTGTTTATACCCTTTC (sugars lddldddddddldddll, PS)”, with 53%; and “TTATAGCCATTCTATCT (sugars ldddlddddddldddll, PS)”, with 42%.
In the case of “CTACATCTCATACTTGC (sugars l2 d13 l2, PS)”, the target mRNA inhibition by setting is: (Human Neuronal Cell, 0.2 µM) -11%; (Human Neuronal Cell, 1 µM) -20%; (Human Neuronal Cell, 5 µM) 8%; under setting [1], 90.4%.
Regarding “TTACACTTAATTATACTTCC (sugars l1 d5 l1 d9 l4, PS)”, the target mRNA inhibition (Human Neuronal Cell, 7.5 µM) came to 61%.
On the same count and under the same terms, the value for ATCATTCTCAACAATTA (sugars l4 d7 l6, PS) was 17%; that for “TCAGCTTTTAACCAGAGTG (sugars l2 d14 l3, PS)” was 76%.
Take TCATACTTGCTTTAAT (sugars l4 d10 l2, PS): the target mRNA inhibition is, setting by setting: (Human Neuronal Cell, 0.2 µM) 13%; (Human Neuronal Cell, 1 µM) 38%.
Consider “AATTTTTTTCTTACTATCTT (sugars llddlldddddddldlldll, PS)”, for which the target mRNA inhibition (Human Neuronal Cell, 7.5 µM) came to 61%.
Turning to GCTTCATATTTCTCCA (sugars l2 d12 l2, PS), the target mRNA inhibition (Human Neuronal Cell, 0.2 µM) was 57%.
As for “TAAAATTATTTATACACCA (sugars ldlldldddddddllllll, PS)”, for the setting “Human Neuronal Cell, 7.5 µM”, the target mRNA inhibition is 39%.
Take ATCTGCTACATATTCT (sugars l4 d10 l2, PS): the target mRNA inhibition was found to be 41% (Human Neuronal Cell, 0.2 µM) and 61% (Human Neuronal Cell, 1 µM).
On the same counts, the results for “TCTTACCAATAGTTACC (sugars l4 d11 l2, PS)” are 45% and 55%.
Take “ATTTTTTTCTTACTATCTTC (sugars ldddllddddddddlddlll, PS)”: the target mRNA inhibition (Human Neuronal Cell, 7.5 µM) was determined as 58%.
Still for that read-out and setting: then “TTTTTATACCTTTCTTTAAC (sugars lllldddddddddldlddll, PS)”, with 69%.
As to ATATTTGTCACCTAAC (sugars l4 d10 l2, PS), the target mRNA inhibition (Human Neuronal Cell, 0.2 µM) stood at 33% and the target mRNA inhibition (Human Neuronal Cell, 1 µM) was found to be 32%.
For “ATCATTCTCAACAATTA (sugars l5 d6 l2 d2 l2, PS)”, the target mRNA inhibition (Human Neuronal Cell, 7.5 µM) came to 31%.
Consider TTCTTAGTCACACACA (sugars l4 d10 l2, PS), for which the target mRNA inhibition (Human Neuronal Cell, 0.2 µM) was -3% and the target mRNA inhibition (Human Neuronal Cell, 1 µM) was -43%.
On the same counts, the results for TATTGATTCAATTCCC (sugars l3 d10 l3, PS) are 62% and 68%.
As for “TTTTTTCTTACTATCTTCAA (sugars lldlldlddddddddlddll, PS)”, the target mRNA inhibition (Human Neuronal Cell, 7.5 µM) turned out to be 58%.
On to TTTAACCTTGCTTATA (sugars l2 d10 l4, PS), for which the target mRNA inhibition is, setting by setting: (Human Neuronal Cell, 0.2 µM) 23%; (Human Neuronal Cell, 1 µM) 25%.
Take “AAATCTCAACTACCATTTTT (sugars ldlddldddddddllddlll, PS)”: the target mRNA inhibition (Human Neuronal Cell, 7.5 µM) was 29%.
In the case of “TGTACTTTCCTTTACCA (sugars l2 d13 l2, PS)”, the target mRNA inhibition (Human Neuronal Cell, 0.2 µM) was 33% and the target mRNA inhibition (Human Neuronal Cell, 1 µM) was 59%.
On to “TTTATACCTTTCTTTAACCC (sugars l1 d15 l1 d1 l2, PS)”, for which the target mRNA inhibition (Human Neuronal Cell, 7.5 µM) was found to be 36%.
As for TATTCTTACCGTCTTT (sugars l2 d10 l4, PS), the target mRNA inhibition (Human Neuronal Cell, 0.2 µM) worked out at 60% and the target mRNA inhibition (Human Neuronal Cell, 1 µM) stood at 68%.
Regarding “TGAAAATCTCAACTACCAT (sugars llldllddddddlddddll, PS)”, for the setting “Human Neuronal Cell, 7.5 µM”, the target mRNA inhibition amounted to 55%.
Still for that read-out and setting: then “TAAAATTATTTATACACCAT (sugars l2 d1 l2 d11 l4, PS)”, with 49%.
Turning to TTATTAACCACCTTAA (sugars l3 d10 l3, PS), the target mRNA inhibition is, setting by setting: (Human Neuronal Cell, 0.2 µM) 21%; (Human Neuronal Cell, 1 µM) 49%.
On to “ACTGTTTATACCCTTTC (sugars l1 d11 l1 d1 l3, PS)”, for which the target mRNA inhibition (Human Neuronal Cell, 7.5 µM) stood at 59%.
The same measure, in the same setting: then “AAAGATCATTCTCAACAA (sugars l5 d10 l3, PS)”, with 64%; and “TTTATCAATATCTTCTCA (sugars lddlllddddddlddlll, PS)”, with 60%.
On the same count and under the same terms, the value for “TTTTTTCTTACTATCTTCAA (sugars llddldldddddddldldll, PS)” was 60%.
Consider “CTATTTAATTTACACTT (sugars l3 d11 l3, PS)”, for which the target mRNA inhibition by setting is: (Human Neuronal Cell, 0.2 µM) 15%; (Human Neuronal Cell, 1 µM) 13%.
As to “ATCATTCTCAACAATTA (sugars l5 d7 l1 d1 l3, PS)”, the target mRNA inhibition (Human Neuronal Cell, 7.5 µM) came to 54%.
Same read-out and setting: the value for “CTTTCCATTTATTTCCATT (sugars lddddldddddddddldll, PS)” was 59%.
Turning to CCAAATAAGCAAACTC (sugars l3 d10 l3, PS), the target mRNA inhibition runs as follows: (Human Neuronal Cell, 0.2 µM) 60%; (Human Neuronal Cell, 1 µM) 39%.
Consider “AAAATCTCAACTACCATTT (sugars l3 d10 l6, PS)”, for which the target mRNA inhibition (Human Neuronal Cell, 7.5 µM) worked out at 48%.
As to “CTGTATACACCATCCCA (sugars l1 d1 l1 d12 l2, PS)”, the target mRNA inhibition (Human Neuronal Cell, 7.5 µM) was found to be 48%.
For the sequence “TTCTGTATACACCATCC (sugars l1 d1 l1 d11 l3, PS)”, the target mRNA inhibition (Human Neuronal Cell, 7.5 µM) came out at 58%.
“TTCTGTATACACCATCC (sugars l1 d3 l1 d9 l3, PS)”: the target mRNA inhibition (Human Neuronal Cell, 7.5 µM) is 64%.
On the same count and under the same terms, the value for “GCAACATTATTAACCACCT (sugars ldldldddddddlddddll, PS)” was 52%.
For CTTACCAATAGTTACC (sugars l4 d10 l2, PS), the target mRNA inhibition reads like this: (Human Neuronal Cell, 0.2 µM) 45%; (Human Neuronal Cell, 1 µM) 65%.
“CCTACATCTCATACTTG (sugars l3 d12 l2, PS)”: the target mRNA inhibition under setting [1] is 96.1%.
On to “TTCCATTTATTTCCATTTAT (sugars ldldllddddddddldddll, PS)”, for which the target mRNA inhibition (Human Neuronal Cell, 7.5 µM) was found to be 59%.
TTTATACCCTTTCCAA (sugars l2 d10 l4, PS): the target mRNA inhibition by setting is: (Human Neuronal Cell, 0.2 µM) 55%; (Human Neuronal Cell, 1 µM) 63%.
On the same counts, the results for “CCTTTCCAATGAATCTA (sugars l2 d11 l4, PS)” are 53% and 59%.
Regarding “TTTATCAATATCTTCTCACT (sugars lddlddldddddddddldll, PS)”, the target mRNA inhibition (Human Neuronal Cell, 7.5 µM) amounted to 58%.
Same read-out and setting: the value for “ATATTGATTCAATTCCC (sugars ldddlddddddllddll, PS)” was 62%; that for “AAAATCTCAACTACCATTTT (sugars llddllddddddddddldll, PS)” was 23%.
For TTTCCAATGAATCTAT (sugars l2 d10 l4, PS), the target mRNA inhibition (Human Neuronal Cell, 0.2 µM) is 21% and the target mRNA inhibition (Human Neuronal Cell, 1 µM) amounted to 36%.
Regarding “TTATAGCCATTCTATCT (sugars l2 d9 l1 d3 l2, PS)”, the target mRNA inhibition (Human Neuronal Cell, 7.5 µM) is 52%.
As to “ACTCTGCAATACACCAA (sugars lldllddddddllddll, PS)”, under “Human Neuronal Cell, 7.5 µM”, the target mRNA inhibition was 38%.
Regarding AGCATCATATAAACCT (sugars l3 d10 l3, PS), the target mRNA inhibition runs as follows: (Human Neuronal Cell, 0.2 µM) 34%; (Human Neuronal Cell, 1 µM) 26%.
As for “TGTTTATACCCTTTCCA (sugars l3 d12 l2, PS)”, the target mRNA inhibition (Human Neuronal Cell, 0.2 µM) stood at 35% and the target mRNA inhibition (Human Neuronal Cell, 1 µM) was found to be 50%.
As to “TTCACCTAATAGCACCA (sugars l2 d11 l4, PS)”, the target mRNA inhibition runs as follows: (Human Neuronal Cell, 0.2 µM) 54%; (Human Neuronal Cell, 1 µM) 64%.
For the sequence “AAACTCTTGCATCTACT (sugars l2 d13 l2, PS)”, the target mRNA inhibition is, setting by setting: (Human Neuronal Cell, 0.2 µM) 19%; (Human Neuronal Cell, 1 µM) 41%.
For GATAATTCCAAATCCC (sugars l2 d10 l4, PS), the target mRNA inhibition reads like this: (Human Neuronal Cell, 0.2 µM) 16%; (Human Neuronal Cell, 1 µM) 6%.
Take “TTTATCAATATCTTCTCAC (sugars l1 d4 l1 d9 l4, PS)”: the target mRNA inhibition (Human Neuronal Cell, 7.5 µM) stood at 52%.
CCTCTGCTTATAACTT (sugars l3 d10 l3, PS): the target mRNA inhibition (Human Neuronal Cell, 0.2 µM) was 47% and the target mRNA inhibition (Human Neuronal Cell, 1 µM) is 68%.
With “TCAGCTTTTAACCAGAGTGG (sugars l2 d16 l2, PS)”, the target mRNA inhibition (Human Neuronal Cell, 7.5 µM) was 70%.
In the case of “TGCTACCATCATTACCT (sugars l2 d13 l2, PS)”, the target mRNA inhibition was determined as 12% (Human Neuronal Cell, 0.2 µM) and 19% (Human Neuronal Cell, 1 µM).
Take “CAAAGATCATTCTCAAC (sugars l1 d2 l2 d6 l6, PS)”: the target mRNA inhibition (Human Neuronal Cell, 7.5 µM) stood at 34%.
